Data published in US10047051B2, “Substituted pyridines and method of use” (AbbVie S.á{acute over (.)}r.l., priority 2015, dated 2018).

Tests used:
CFTR ΔF508 mutant = biological target: T1, CFTR ΔF508 mutant (Homo sapiens, UniProt P13569, DEL508-508); assay: YFP-halide influx assay for the CFTR-ΔF508 mutation (CFBE41o- cells); type: cell-based; settings: forskolin 10.67 μM; for EC50: from (1−F/F0) vs concentration plot
T1 construct: expressed in transfected cells; host or cells: CFBE41o- cells, adenoviral transduction
T1 sequence (P13569 with tags, fused parts or gaps DEL508-508): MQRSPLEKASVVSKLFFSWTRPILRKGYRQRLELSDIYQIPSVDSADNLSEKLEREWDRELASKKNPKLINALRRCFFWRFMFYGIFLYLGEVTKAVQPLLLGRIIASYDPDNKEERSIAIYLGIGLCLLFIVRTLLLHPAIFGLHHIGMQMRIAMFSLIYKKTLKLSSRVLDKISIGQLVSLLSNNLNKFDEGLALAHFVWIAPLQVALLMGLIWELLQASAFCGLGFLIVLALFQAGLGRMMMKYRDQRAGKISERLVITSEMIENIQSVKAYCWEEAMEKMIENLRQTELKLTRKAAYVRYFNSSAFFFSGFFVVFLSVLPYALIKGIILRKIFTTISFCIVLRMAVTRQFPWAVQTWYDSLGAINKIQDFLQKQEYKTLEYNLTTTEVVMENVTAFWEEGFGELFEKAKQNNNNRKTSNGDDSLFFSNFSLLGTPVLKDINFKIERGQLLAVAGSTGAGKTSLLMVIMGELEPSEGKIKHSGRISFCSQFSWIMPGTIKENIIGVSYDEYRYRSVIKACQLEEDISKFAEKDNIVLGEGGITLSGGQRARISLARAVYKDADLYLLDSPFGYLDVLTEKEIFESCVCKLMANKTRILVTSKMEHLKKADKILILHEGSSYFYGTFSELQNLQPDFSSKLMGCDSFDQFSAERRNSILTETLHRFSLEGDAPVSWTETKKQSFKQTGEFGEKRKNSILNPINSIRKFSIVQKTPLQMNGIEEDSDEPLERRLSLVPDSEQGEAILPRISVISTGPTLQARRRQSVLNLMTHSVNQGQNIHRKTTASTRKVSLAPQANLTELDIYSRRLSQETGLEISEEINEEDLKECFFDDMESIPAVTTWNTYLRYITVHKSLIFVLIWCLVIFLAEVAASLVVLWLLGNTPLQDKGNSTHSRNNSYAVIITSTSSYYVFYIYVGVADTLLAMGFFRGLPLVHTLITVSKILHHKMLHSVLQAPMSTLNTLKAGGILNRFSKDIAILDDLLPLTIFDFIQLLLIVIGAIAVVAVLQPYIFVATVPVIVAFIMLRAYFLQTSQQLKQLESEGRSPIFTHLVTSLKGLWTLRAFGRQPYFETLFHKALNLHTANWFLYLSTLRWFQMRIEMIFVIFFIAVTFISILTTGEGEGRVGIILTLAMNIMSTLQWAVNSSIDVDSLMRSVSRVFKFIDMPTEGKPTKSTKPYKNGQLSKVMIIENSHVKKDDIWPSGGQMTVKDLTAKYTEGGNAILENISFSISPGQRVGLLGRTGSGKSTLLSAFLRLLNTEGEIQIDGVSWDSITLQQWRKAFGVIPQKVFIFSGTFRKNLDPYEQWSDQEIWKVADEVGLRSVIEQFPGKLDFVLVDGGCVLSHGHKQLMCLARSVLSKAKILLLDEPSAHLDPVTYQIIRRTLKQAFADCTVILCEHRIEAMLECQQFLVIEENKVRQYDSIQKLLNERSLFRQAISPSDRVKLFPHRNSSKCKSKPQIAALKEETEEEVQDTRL
How it was run: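 CFBE41o- cells transduced with adenovirus expressing CFTR ΔF508 and halide-sensitive YFP H148Q/I152L/F47L, then held 24 h at 27° C or with a CFTR modulator 24 h at 37° C. Iodide-induced quench recorded 2 min; EC50 from (1−F/F0) at 36 s versus concentration.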

CFTR G551D mutant = biological target: T2, CFTR G551D mutant (Homo sapiens, UniProt P13569, G551D); assay: YFP-halide influx assay for the CFTR-G551D mutation (HEK293 cells); type: cell-based; settings: forskolin 10.67 μM
T2 construct: expressed in transfected cells; host or cells: HEK293 cells, reverse transfection with plasmids
T2 sequence (P13569 whole entry G551D): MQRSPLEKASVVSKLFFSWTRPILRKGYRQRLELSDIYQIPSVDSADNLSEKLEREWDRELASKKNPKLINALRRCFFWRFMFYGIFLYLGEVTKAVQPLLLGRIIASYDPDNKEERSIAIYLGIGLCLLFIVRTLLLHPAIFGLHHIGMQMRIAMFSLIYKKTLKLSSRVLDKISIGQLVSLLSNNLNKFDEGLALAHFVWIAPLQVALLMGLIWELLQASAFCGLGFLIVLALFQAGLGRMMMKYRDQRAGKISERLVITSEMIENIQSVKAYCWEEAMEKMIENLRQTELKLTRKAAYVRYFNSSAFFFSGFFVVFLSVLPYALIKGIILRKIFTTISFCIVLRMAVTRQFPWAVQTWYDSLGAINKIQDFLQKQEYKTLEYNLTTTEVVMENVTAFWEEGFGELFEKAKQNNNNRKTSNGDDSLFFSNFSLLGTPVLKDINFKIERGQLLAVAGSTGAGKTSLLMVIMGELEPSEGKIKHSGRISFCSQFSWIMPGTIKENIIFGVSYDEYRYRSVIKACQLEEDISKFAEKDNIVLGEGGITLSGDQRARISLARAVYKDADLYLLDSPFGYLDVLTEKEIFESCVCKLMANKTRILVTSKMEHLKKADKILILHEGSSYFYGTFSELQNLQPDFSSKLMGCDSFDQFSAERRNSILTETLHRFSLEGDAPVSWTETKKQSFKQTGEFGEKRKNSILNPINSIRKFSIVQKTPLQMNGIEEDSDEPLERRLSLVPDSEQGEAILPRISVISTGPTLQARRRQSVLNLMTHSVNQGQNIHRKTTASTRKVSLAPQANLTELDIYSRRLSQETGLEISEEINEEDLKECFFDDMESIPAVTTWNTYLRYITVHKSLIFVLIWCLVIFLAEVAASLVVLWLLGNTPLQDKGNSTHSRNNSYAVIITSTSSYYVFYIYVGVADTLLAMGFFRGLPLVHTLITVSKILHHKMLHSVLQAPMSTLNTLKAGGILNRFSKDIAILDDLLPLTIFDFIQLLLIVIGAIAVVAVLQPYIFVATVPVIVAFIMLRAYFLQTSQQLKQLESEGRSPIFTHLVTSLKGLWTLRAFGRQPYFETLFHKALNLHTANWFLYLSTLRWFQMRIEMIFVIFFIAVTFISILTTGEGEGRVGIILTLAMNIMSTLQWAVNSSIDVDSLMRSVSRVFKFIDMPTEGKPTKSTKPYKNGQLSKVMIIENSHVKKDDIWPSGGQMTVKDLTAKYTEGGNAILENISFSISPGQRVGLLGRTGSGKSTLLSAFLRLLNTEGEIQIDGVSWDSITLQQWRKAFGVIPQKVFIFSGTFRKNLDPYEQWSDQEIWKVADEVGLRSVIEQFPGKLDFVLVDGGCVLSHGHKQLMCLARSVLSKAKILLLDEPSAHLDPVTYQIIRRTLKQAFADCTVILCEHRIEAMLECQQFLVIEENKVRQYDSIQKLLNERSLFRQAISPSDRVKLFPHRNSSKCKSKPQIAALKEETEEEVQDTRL
How it was run: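 HEK293 cells reverse-transfected with CFTR G551D and halide-sensitive YFP (H148Q/I152L/F47L), expressed 24 h at 37 °C. YFP fluorescence quenching recorded for 7 s after I⁻ injection. Response = 1−F/F0; EC50 derived from 1−F/F0 vs compound concentration.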

Row | % Activation (CFTR ΔF508 mutant) | EC50 (CFTR ΔF508 mutant) | % Activation (CFTR G551D mutant) | EC50 (CFTR G551D mutant) | Compound
1 | 108.1% | 23.7 nM | 71.6% | 1330 nM | Nc1cc(S(=O)(=O)c2ccc(OC(F)(F)F)cc2)cnc1C(=O)NCCO [Compound 14, 3-amino-N-(2-hydroxyethyl)-5-{[4-(trifluoromethoxy)phenyl]sulfonyl}pyridine-2-carboxamide]
2 | 104.5% | 4.3 nM | 62.5% | 739 nM | CC(O)(CNC(=O)c1ncc(S(=O)(=O)c2ccc(OC(F)(F)F)cc2)cc1N)C(F)(F)F (stereo not drawn) [Compound 2, 3-amino-N-(3,3,3-trifluoro-2-hydroxy-2-methylpropyl)-5-{[4-(trifluoromethoxy)phenyl]sulfonyl}pyridine-2-carboxamide]
3 | 96.1% | 14.5 nM | 65.8% | 1940 nM | Nc1cc(S(=O)(=O)c2ccc(OC(F)(F)F)cc2)cnc1C(=O)N1CC(O)C1 [Compound 32, (3-amino-5-{[4-(trifluoromethoxy)phenyl]sulfonyl}pyridin-2-yl)(3-hydroxyazetidin-1-yl)methanone]
4 | 105.3% | 2.2 nM | 80.8% | 315 nM | Nc1cc(S(=O)(=O)c2ccc(OC(F)(F)F)cc2)cnc1C(=O)NC[C@H](O)C(F)(F)F [Compound 26, 3-amino-N-[(2S)-3,3,3-trifluoro-2-hydroxypropyl]-5-{[4-(trifluoromethoxy)phenyl]sulfonyl}pyridine-2-carboxamide]
5 | 106.2% | 18.6 nM | 71.7% | 425 nM | Nc1cc(S(=O)(=O)c2ccc(OC(F)(F)F)cc2)cnc1C(=O)NCC(O)COCC1CC1 (stereo not drawn) [Compound 31, 3-amino-N-[3-(cyclopropylmethoxy)-2-hydroxypropyl]-5-{[4-(trifluoromethoxy)phenyl]sulfonyl}pyridine-2-carboxamide]
6 | 106.4% | 2.3 nM | 83.7% | 271 nM | Nc1cc(S(=O)(=O)c2ccc(OC(F)(F)F)cc2)cnc1C(=O)NC[C@@H](O)C(F)(F)F [Compound 37, 3-amino-N-[(2R)-3,3,3-trifluoro-2-hydroxypropyl]-5-{[4-(trifluoromethoxy)phenyl]sulfonyl}pyridine-2-carboxamide]
7 | 97.9% | 31.4 nM | 47.1% | 700 nM | CC(C)(O)CNC(=O)c1ncc(S(=O)(=O)c2ccc(OC(F)(F)F)cc2)cc1N [Compound 1, 3-amino-N-(2-hydroxy-2-methylpropyl)-5-{[4-(trifluoromethoxy)phenyl]sulfonyl}pyridine-2-carboxamide]
8 | 114.0% | 3.4 nM | 82.5% | 350 nM | Nc1cc(S(=O)(=O)c2ccc(OC(F)(F)F)cc2)cnc1C(=O)NCC(O)C(F)(F)F (stereo not drawn) [Compound 6, 3-amino-N-(3,3,3-trifluoro-2-hydroxypropyl)-5-{[4-(trifluoromethoxy)phenyl]sulfonyl}pyridine-2-carboxamide]
9 | 96.6% | 12.9 nM | 59.1% | 1140 nM | C[C@H](O)CNC(=O)c1ncc(S(=O)(=O)c2ccc(C(F)(F)F)cc2)cc1N [Compound 100, 3-amino-N-[(2S)-2-hydroxypropyl]-5-{[4-(trifluoromethyl)phenyl]sulfonyl}pyridine-2-carboxamide]
10 | 111.6% | 16.9 nM | 75.3% | 864 nM | COC[C@H](O)CNC(=O)c1ncc(S(=O)(=O)c2ccc(C(F)(F)F)cc2)cc1N [Compound 70, 3-amino-N-[(2R)-2-hydroxy-3-methoxypropyl]-5-{[4-(trifluoromethyl)phenyl]sulfonyl}pyridine-2-carboxamide]
11 | 111.0% | 8.5 nM | 58.4% | 667 nM | Nc1cc(S(=O)(=O)c2ccc(F)cc2)cnc1C(=O)NC[C@@H](O)C(F)(F)F [Compound 36, 3-amino-5-[(4-fluorophenyl)sulfonyl]-N-[(2R)-3,3,3-trifluoro-2-hydroxypropyl]pyridine-2-carboxamide]
12 | 109.0% | 14.9 nM | 85.1% | 1200 nM | C[C@H](O)CNC(=O)c1ncc(S(=O)(=O)c2ccc(OC(F)(F)F)cc2)cc1N [Compound 21, 3-amino-N-[(2S)-2-hydroxypropyl]-5-{[4-(trifluoromethoxy)phenyl]sulfonyl}pyridine-2-carboxamide]
13 | 105.5% | 22.9 nM | 70.2% | 656 nM | Nc1cc(S(=O)(=O)c2ccc(OC(F)(F)F)cc2)cnc1C(=O)N1CC(F)(F)C1 [Compound 40, (3-amino-5-{[4-(trifluoromethoxy)phenyl]sulfonyl}pyridin-2-yl)(3,3-difluoroazetidin-1-yl)methanone]
14 | 108.3% | 8.1 nM | 67.2% | 976 nM | Nc1cc(S(=O)(=O)c2ccc(F)cc2)cnc1C(=O)NC[C@H](O)C(F)(F)F [Compound 25, 3-amino-5-[(4-fluorophenyl)sulfonyl]-N-[(2S)-3,3,3-trifluoro-2-hydroxypropyl]pyridine-2-carboxamide]
15 | 104.0% | 0.5 nM | 108.0% | 239 nM | Nc1cc(S(=O)(=O)c2ccccc2OC(F)(F)F)cnc1C(=O)NC[C@@H](O)C(F)(F)F [Compound 81, 3-amino-N-[(2R)-3,3,3-trifluoro-2-hydroxypropyl]-5-{[2-(trifluoromethoxy)phenyl]sulfonyl}pyridine-2-carboxamide]
